From ChEMBL document CHEMBL1156922, “Interaction between double helix DNA fragments and the new antitumor agent sabarubicin, Men10755” (Bioorg Med Chem, 2010)

What was measured:
[1] = test system: Nucleic Acid; test: Binding affinity to d(CGTACG)2 assessed as average residence time; type: nucleic-acid assay
[2] = test system: Nucleic Acid; test: Binding affinity to d(CGATCG)2 assessed as average residence time; type: nucleic-acid assay

SMILES	TIME [1] [h]	TIME [2] [h]
COc1cccc2c1C(=O)c1c(O)c3c(c(O)c1C2=O)C[C@@](O)(C(=O)CO)C[C@@H]3O[C@H]1C[C@H](N2CCO[C@H](OC)C2)[C@H](O)[C@H](C)O1	0.00139	–
COc1cccc2c1C(=O)c1c(O)c3c(c(O)c1C2=O)C[C@@](O)(C(=O)CO)C[C@@H]3O[C@H]1C[C@H](N)[C@H](O)[C@H](C)O1	0.000347	0.000231
CC(=O)[C@]1(O)Cc2c(O)c3c(c(O)c2[C@@H](O[C@H]2C[C@H](O)[C@H](O[C@H]4C[C@H](N)[C@H](O)[C@H](C)O4)[C@H](C)O2)C1)C(=O)c1ccccc1C3=O	5e-05	5e-05
C[C@@H]1O[C@@H](O[C@@H]2[C@H](C)O[C@@H](O[C@H]3C[C@](O)(C(=O)CO)Cc4c(O)c5c(c(O)c43)C(=O)c3ccccc3C5=O)C[C@@H]2O)C[C@H](N)[C@@H]1O	5.83e-05	0.000131
